# Experimental data taken from patent publication US10512634B2, “Benzimidazole derivates useful as inhibitors of mammalian histone deacetylase activity” (KANCERA AB, priority 2015, dated 2019).
# Where a name gives a salt, the structure may show the parent alone. Read-outs that look alike come from different tables or passages of the source.
# How the values were obtained:
# HDAC6 = HDAC6 (Homo sapiens (Human), UniProt Q9UBN7); assay: HDAC in vitro enzymatic assay (fluorescence); assay type: biochemical
# Description: Biological Tests Method for Measurement of Enzymatic Activity of HDACs Materials & Methods
# All Examples were tested in HDAC1, 2, 3, 6 and 8 in vitro enzymatic assays. The assay principle is well known (Hauser et al. 2009, Bradner et al. 2010) and all necessary reagents like enzymes, substrates, developer and reference compounds are commercially available (see e.g. BPS Biosciences http://www.bpsbioscience.com/). A series of dilutions of the compounds were prepared with a top concentration of 200 μM (2 μM for HDAC6). The enzymatic reactions were conducted in a mixture containing assay buffer, bovine serum albumin, HDAC substrate, and a test compound. After enzymatic reaction, developer was added and after an additional incubation time, fluorescence intensity was measured at an excitation wavelength of 360 nm and an emission wavelength of 460 nm. A selection of the Examples were tested in a full HDAC panel containing HDAC1, 2, 3, 4, 5, 6, 7, 8, 9, 10 and 11 in vitro enzymatic assays. The tests were performed as above except that a series of dilutions of the compounds were prepared with a top concentration of 10 μM for all HDACs.
# HDAC1 = HDAC1 (Homo sapiens (Human), UniProt Q13547); assay: HDAC in vitro enzymatic assay (fluorescence)
# HDAC1, sequence (Q13547 whole entry): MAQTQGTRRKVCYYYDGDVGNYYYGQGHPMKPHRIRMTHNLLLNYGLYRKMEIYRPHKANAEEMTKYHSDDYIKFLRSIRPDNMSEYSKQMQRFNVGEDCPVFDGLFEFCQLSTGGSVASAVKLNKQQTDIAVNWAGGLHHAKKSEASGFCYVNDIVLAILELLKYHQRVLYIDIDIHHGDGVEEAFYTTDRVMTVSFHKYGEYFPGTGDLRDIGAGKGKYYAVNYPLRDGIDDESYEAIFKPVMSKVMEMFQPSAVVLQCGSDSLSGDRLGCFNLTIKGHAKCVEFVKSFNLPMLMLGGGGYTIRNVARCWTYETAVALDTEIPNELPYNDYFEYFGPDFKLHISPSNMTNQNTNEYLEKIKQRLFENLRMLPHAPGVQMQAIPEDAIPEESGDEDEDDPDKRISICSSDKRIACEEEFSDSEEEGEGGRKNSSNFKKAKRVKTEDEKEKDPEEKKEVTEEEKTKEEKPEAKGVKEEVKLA
# HDAC2 = HDAC2 (Homo sapiens (Human), UniProt Q92769); assay: HDAC in vitro enzymatic assay (fluorescence); conditions: read-out: IC50 HDAC2
# HDAC2, sequence (Q92769 whole entry): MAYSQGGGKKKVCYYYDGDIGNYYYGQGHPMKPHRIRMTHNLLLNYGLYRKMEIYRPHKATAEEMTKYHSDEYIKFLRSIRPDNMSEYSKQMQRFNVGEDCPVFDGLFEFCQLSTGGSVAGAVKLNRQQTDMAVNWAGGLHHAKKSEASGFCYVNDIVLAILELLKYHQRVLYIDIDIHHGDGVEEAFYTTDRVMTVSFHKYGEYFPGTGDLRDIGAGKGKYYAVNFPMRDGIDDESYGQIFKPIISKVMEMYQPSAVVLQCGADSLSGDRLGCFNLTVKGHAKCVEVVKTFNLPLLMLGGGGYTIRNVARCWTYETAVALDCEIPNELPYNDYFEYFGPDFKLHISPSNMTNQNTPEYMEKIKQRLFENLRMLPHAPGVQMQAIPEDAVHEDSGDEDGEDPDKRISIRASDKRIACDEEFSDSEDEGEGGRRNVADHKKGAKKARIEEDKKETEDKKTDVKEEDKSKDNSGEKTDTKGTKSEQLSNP
# HDAC3 = HDAC3 (Homo sapiens (Human), UniProt O15379); assay: HDAC in vitro enzymatic assay (fluorescence); conditions: read-out: IC50 HDAC3
# HDAC3, sequence (O15379 whole entry): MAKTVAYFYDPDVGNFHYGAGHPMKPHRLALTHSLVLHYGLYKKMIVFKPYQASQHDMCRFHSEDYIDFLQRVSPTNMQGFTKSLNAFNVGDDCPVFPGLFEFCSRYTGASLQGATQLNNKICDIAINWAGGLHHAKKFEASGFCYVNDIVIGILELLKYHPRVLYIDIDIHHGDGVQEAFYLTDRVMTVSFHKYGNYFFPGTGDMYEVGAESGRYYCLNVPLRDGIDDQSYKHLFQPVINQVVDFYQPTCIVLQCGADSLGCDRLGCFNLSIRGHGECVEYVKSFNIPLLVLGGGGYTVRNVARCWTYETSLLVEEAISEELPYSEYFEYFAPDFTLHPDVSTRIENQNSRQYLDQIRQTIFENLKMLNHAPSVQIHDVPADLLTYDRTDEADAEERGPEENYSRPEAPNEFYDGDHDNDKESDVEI
# HDAC3, sequence (Q9Y618 395-489 partner): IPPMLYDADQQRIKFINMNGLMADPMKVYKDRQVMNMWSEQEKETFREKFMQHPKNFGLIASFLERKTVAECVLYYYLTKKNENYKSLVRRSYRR
# HDAC8 = HDAC8 (Homo sapiens (Human), UniProt Q9BY41); assay: HDAC in vitro enzymatic assay (fluorescence); conditions: read-out: IC50 HDAC8
# HDAC8, sequence (Q9BY41 whole entry): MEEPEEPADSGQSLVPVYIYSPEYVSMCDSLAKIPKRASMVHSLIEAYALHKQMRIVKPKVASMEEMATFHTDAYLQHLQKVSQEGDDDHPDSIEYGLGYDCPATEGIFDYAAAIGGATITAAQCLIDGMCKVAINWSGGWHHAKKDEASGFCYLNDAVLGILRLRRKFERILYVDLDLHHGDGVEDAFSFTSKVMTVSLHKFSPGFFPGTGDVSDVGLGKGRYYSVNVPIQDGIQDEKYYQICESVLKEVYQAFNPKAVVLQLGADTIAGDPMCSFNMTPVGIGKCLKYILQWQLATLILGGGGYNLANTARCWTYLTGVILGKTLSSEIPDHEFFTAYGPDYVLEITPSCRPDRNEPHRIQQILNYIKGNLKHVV
# HDAC4 = HDAC4 (Homo sapiens (Human), UniProt P56524); assay: HDAC in vitro enzymatic assay (full HDAC panel); conditions: read-out: IC50 HDAC4, top concentration 10 μM
# HDAC5 = HDAC5 (Homo sapiens (Human), UniProt Q9UQL6); assay: HDAC in vitro enzymatic assay (full HDAC panel); conditions: read-out: IC50 HDAC5, top concentration 10 μM
# HDAC5, sequence (Q9UQL6 whole entry): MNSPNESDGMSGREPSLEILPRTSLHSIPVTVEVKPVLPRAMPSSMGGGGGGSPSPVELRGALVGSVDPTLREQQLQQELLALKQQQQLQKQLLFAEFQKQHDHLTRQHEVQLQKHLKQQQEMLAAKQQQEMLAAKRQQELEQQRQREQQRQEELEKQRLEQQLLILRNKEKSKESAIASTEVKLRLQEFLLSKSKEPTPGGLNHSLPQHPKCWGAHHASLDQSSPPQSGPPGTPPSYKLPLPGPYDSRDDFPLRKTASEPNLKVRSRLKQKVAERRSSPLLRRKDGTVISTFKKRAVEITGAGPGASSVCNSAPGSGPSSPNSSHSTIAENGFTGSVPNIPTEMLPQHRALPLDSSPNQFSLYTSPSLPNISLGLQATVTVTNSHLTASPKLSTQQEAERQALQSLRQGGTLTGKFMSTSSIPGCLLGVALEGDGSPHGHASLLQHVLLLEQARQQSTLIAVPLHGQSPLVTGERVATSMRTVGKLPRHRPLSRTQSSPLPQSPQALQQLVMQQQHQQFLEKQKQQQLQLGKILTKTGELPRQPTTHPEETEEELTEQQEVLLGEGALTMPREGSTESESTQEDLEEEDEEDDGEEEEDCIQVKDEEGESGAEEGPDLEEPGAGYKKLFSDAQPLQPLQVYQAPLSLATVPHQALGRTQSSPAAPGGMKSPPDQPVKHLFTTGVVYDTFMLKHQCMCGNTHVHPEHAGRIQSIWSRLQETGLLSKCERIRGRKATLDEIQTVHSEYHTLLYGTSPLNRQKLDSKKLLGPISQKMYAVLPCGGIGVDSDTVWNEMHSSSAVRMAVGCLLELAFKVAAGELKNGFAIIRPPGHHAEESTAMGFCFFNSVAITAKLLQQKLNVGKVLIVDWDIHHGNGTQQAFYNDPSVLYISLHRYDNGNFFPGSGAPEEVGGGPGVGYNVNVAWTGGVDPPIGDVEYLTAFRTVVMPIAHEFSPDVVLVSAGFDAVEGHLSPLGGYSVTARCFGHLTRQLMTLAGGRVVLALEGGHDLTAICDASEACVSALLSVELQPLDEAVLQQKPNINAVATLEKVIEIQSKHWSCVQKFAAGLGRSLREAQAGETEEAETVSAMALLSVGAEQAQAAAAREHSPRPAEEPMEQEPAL
# HDAC7 = HDAC7 (Homo sapiens (Human), UniProt Q8WUI4); assay: HDAC in vitro enzymatic assay (full HDAC panel); conditions: read-out: IC50 HDAC7, top concentration 10 μM
# HDAC7, sequence (Q8WUI4 whole entry): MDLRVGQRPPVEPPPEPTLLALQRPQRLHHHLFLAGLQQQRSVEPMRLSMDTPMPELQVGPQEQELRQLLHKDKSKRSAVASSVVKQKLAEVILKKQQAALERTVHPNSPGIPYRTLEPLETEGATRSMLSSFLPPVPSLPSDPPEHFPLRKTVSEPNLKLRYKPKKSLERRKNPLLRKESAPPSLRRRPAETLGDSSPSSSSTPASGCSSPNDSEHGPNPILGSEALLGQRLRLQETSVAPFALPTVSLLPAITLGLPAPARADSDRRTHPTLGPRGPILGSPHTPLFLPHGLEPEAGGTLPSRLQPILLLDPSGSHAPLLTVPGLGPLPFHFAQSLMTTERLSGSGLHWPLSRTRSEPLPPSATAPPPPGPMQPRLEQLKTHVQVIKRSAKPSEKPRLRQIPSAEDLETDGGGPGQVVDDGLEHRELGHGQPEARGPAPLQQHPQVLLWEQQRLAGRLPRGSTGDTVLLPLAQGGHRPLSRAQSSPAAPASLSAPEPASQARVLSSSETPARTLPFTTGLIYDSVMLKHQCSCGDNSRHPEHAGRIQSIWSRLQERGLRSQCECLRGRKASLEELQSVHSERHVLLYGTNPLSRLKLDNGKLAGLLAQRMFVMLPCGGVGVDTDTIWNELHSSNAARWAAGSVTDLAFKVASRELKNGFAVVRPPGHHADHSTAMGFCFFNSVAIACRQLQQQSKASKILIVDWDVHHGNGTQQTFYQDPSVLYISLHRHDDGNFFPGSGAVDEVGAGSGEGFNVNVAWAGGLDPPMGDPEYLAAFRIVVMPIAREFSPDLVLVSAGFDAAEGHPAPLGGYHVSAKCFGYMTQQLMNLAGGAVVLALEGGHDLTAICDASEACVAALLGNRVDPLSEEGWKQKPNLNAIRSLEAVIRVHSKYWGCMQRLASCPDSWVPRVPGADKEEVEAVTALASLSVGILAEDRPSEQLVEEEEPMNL
# HDAC9 = HDAC9 (Homo sapiens (Human), UniProt Q9UKV0); assay: HDAC in vitro enzymatic assay (full HDAC panel); conditions: read-out: IC50 HDAC9, top concentration 10 μM
# HDAC9, sequence (Q9UKV0 whole entry): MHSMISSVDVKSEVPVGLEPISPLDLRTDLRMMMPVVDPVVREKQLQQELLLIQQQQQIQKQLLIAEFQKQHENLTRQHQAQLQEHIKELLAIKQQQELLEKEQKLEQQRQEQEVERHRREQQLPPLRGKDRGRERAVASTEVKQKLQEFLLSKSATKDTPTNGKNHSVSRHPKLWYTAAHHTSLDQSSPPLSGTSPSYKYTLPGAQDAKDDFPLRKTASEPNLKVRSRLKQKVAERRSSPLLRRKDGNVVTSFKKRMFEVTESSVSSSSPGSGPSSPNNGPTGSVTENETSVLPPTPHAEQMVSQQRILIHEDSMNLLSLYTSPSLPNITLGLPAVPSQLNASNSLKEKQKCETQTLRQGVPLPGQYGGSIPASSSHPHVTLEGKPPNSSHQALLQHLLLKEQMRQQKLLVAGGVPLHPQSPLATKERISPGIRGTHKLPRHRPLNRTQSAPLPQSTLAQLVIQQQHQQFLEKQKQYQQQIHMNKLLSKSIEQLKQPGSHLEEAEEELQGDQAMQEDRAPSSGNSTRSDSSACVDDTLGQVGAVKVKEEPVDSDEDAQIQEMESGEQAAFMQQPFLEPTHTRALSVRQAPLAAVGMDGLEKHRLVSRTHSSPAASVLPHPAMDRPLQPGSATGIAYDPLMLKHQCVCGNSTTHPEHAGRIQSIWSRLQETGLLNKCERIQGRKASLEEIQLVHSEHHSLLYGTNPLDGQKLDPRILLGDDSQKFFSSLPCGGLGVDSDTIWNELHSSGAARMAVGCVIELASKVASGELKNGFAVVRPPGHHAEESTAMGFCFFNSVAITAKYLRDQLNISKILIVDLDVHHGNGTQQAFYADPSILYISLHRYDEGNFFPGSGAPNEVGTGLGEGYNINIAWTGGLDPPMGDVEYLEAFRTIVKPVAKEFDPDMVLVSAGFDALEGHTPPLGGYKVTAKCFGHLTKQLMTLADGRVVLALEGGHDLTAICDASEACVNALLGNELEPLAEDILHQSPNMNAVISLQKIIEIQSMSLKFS
# HDAC10 = HDAC10 (Homo sapiens (Human), UniProt Q969S8); assay: HDAC in vitro enzymatic assay (full HDAC panel); conditions: read-out: IC50 HDAC10, top concentration 10 μM
# HDAC11 = HDAC11 (Homo sapiens (Human), UniProt Q96DB2); assay: HDAC in vitro enzymatic assay (full HDAC panel); conditions: read-out: IC50 HDAC11, top concentration 10 μM
# AMO-1 (plasmacytom) = assay: CellTiter-Blue cell viability assay; assay type: cell-based; conditions: Homo sapiens, read-out: IC50 AMO-1 (cell viability)
# Description: (§1) Method for Measurement of Cell Viability
# (§2) The CellTiter-Blue® Cell Viability Assay (Promega) provides a homogeneous, fluorometric method for estimating the number of viable cells present in multi-well plates. The assay uses the indicator dye resazurin to measure the metabolic capacity of cells. Viable cells retain the ability to reduce resazurin into resorufin, which is highly fluorescent.
# (§3) Stock solutions (10 mM in DMSO) of compounds were serially diluted 1:2 in 11 concentrations. 50 nL/well (10 mM compound stock in DMSO) was acoustically dispensed in 384-well assay plates with an acoustic dispenser (EDC Biosystems ATS-100AV). Final starting concentration in the assay was 20 μM (0.2% DMSO) for test compounds. […] After 72 hours, Celltiter Blue reagent (Promega #G8081) was diluted 1:10 with PBS and then added to wells (5 μL/well). The plates were incubated for 2 hours following addition of reagent. […] Results were calculated as % cell viability compared to background (cells treated with 0.2% DMSO).
# [1] = tested on: PBMC (peripheral blood mononuclear cells from healthy donors); assay: CellTiter-Blue cell viability assay; assay type: cell-based; conditions: read-out: IC50 healthy PBMC (cell viability)
# Description: as §1, §2, §3
# PaCa2 (pancreatic) = assay: CellTiter-Blue cell viability assay; assay type: cell-based; conditions: read-out: IC50 PaCa2 (cell viability)
# Description: as §1, §2, §3
# U266 (multiple myelom) = assay: CellTiter-Blue cell viability assay; assay type: cell-based; conditions: Homo sapiens, read-out: IC50 U266 (cell viability)
# Description: as §1, §2, §3
# [2] = top concentration 2 μM, read-out: IC50 values for inhibition of HDAC6
# [3] = full HDAC panel, top concentration 10 μM
# [4] = selectivity profiling, top concentration 2 μM, read-out: IC50 HDAC6
# [5] = read-out: IC50 HDAC1, selectivity profiling, top concentration 200 μM
# [6] = selectivity profiling, top concentration 200 μM
# [7] = AMO1, AMO-1 cells, 72 hours of treatment
# [8] = healthy PBMC, 72 hours of treatment
# [9] = PaCa-2, PaCa2 cells, 72 hours of treatment
# [10] = U-266, U266 cells, 72 hours of treatment
Compound,IC50 (U266 (multiple myelom); [10]) [nM],IC50 (HDAC6; [2]) [nM],IC50 (HDAC6; [4]) [nM],"IC50 (AMO-1 (plasmacytom); AMO1, 72 h) [nM]","IC50 ([1]; PBMC, 72 h) [nM]","IC50 (PaCa2 (pancreatic); PaCa-2, 72 h) [nM]","IC50 (U266 (multiple myelom); U-266, 72 h) [nM]",IC50 (HDAC1; [5]) [nM],IC50 (HDAC2; [6]) [nM],IC50 (HDAC3; [6]) [nM],IC50 (HDAC8; [6]) [nM],IC50 (AMO-1 (plasmacytom); [7]) [nM],"IC50 [1, 8] [nM]",IC50 (PaCa2 (pancreatic); [9]) [nM],also measured
"Cc1cc(O)cc(C)c1-c1nc2ccc(C(=O)NO)cc2[nH]1 [Example 15, N-hydroxy-2-(4-hydroxy-2,6-dimethylphenyl)-1H-benzimidazole-6-carboxamide]",–,69,–,–,–,–,–,–,–,–,–,–,–,–,"IC50 (HDAC6; full HDAC panel, top concentration 10 μM, read-out: IC50 HDAC6): 69 nM; IC50 (HDAC1; read-out: IC50 HDAC 1, full HDAC panel, top concentration 10 μM): > 10000 nM; IC50 (HDAC2; [3]): > 10000 nM; IC50 (HDAC3; [3]): 8200 nM; IC50 (HDAC8; [3]): > 10000 nM; IC50 (HDAC4): > 10000 nM; IC50 (HDAC5): > 10000 nM; IC50 (HDAC7): 3000 nM; IC50 (HDAC9): 6900 nM; IC50 (HDAC10): > 10000 nM; IC50 (HDAC11): > 10000 nM"
"CC(C)c1ccc(-c2nc3ccc(C(=O)NO)cc3[nH]2)cc1 [Example 50, N-hydroxy-2-[4-(1-methylethyl)phenyl]-1H-benzimidazole-6-carboxamide]",–,14,14,2000,> 20000,290,580,3300,32000,3400,420,–,–,–,–
"CCCCc1ccc(-c2nc3ccc(C(=O)NO)cc3[nH]2)cc1 [Example 162, 2-(4-butylphenyl)-N-hydroxy-1H-benzimidazole-6-carboxamide]",–,31,31,3700,> 20000,820,740,7700,94000,11000,190,–,–,–,–
"O=C(NO)c1ccc2nc(-c3ccc(-c4ccccc4)cc3)[nH]c2c1 [Example 6, 2-biphenyl-4-yl-N-hydroxy-1H-benzimidazole-6-carboxamide]",–,15,15,1700,> 20000,410,540,51000,160000,2100,470,–,–,–,–
"O=C(NO)c1ccc2nc(-c3cccc(Br)c3)[nH]c2c1 [Example 21, 2-(3-bromophenyl)-N-hydroxy-1H-benzimidazole-6-carboxamide]",–,12,12,7000,> 20000,4300,7800,1500,9300,780,62,–,–,–,–
"Cn1c(-c2ccc(-c3ccccc3)cc2)nc2cc(C(=O)NO)ccc21 [Example 225, 2-biphenyl-4-yl-N-hydroxy-1-methyl-1H-benzimidazole-5-carboxamide]",–,3.6,3.6,> 20000,> 20000,1000,340,326,> 200000,> 200000,74,–,–,–,–
"CC(C)c1ccc(-c2nc3cc(C(=O)NO)ccc3n2C)cc1 [Example 223, N-hydroxy-1-methyl-2-[4-(1-methylethyl)phenyl]-1H-benzimidazole-5-carboxamide]",–,28,28,18000,> 20000,5400,8200,1600,60000,4500,84,–,–,–,–
"O=C(NO)c1ccc2nc(-c3ccc(-c4ccc(CN5CCOCC5)cc4)cc3)[nH]c2c1 [Example 190, N-hydroxy-2-[4′-(morpholin-4-ylmethyl)biphenyl-4-yl]-1H-benzimidazole-6-carboxamide trifluoroacetate]",–,21,21,8100,> 20000,2300,3900,4000,13000,910,80,–,–,–,–

# Further lines, with some results ahead:
IC50 (U266 (multiple myelom); [10]) [nM],Compound,IC50 (HDAC6; [2]) [nM],IC50 (HDAC6; [4]) [nM],"IC50 (AMO-1 (plasmacytom); AMO1, 72 h) [nM]","IC50 ([1]; PBMC, 72 h) [nM]","IC50 (PaCa2 (pancreatic); PaCa-2, 72 h) [nM]","IC50 (U266 (multiple myelom); U-266, 72 h) [nM]",IC50 (HDAC1; [5]) [nM],IC50 (HDAC2; [6]) [nM],IC50 (HDAC3; [6]) [nM],IC50 (HDAC8; [6]) [nM],IC50 (AMO-1 (plasmacytom); [7]) [nM],"IC50 [1, 8] [nM]",IC50 (PaCa2 (pancreatic); [9]) [nM],also measured
640,"CCCCCCCCCc1ccc(-c2nc3ccc(C(=O)NO)cc3[nH]2)cc1 [Example 161, 2-(4-nonylphenyl)-N-hydroxy-1H-benzimidazole-6-carboxamide]",–,–,–,–,–,–,–,–,–,–,5500,> 20000,610,–
620,"O=C(NO)c1ccc2nc(-c3ccc(-c4cccc(Cl)c4)s3)[nH]c2c1 [Example 177, 2-[5-(3-chlorophenyl)thiophen-2-yl]-N-hydroxy-1H-benzimidazole-6-carboxamide]",5.1,–,–,–,–,–,–,–,–,–,3500,> 20000,1100,–
2000,"O=C(NO)c1ccc2nc(-c3ccc(Oc4ccccc4)cc3)[nH]c2c1 [Example 8, N-hydroxy-2-(4-phenoxyphenyl)-1H-benzimidazole-6-carboxamide]",–,–,–,–,–,–,–,–,–,–,2300,> 20000,1700,–
3900,"O=C(NO)c1ccc2nc(-c3cccc(C(F)(F)F)c3Cl)[nH]c2c1 [Example 34, 2-[2-chloro-3-(trifluoromethyl)phenyl]-N-hydroxy-1H-benzimidazole-6-carboxamide]",–,–,–,–,–,–,–,–,–,–,10000,> 20000,12000,–
490,"O=C(NO)c1ccc2nc(-c3ccc(-c4cccc(Cl)c4)cc3)[nH]c2c1 [Example 151, 2-(3′-chlorobiphenyl-4-yl)-N-hydroxy-1H-benzimidazole-6-carboxamide]",–,–,–,–,–,–,–,–,–,–,1900,> 20000,1000,–
2900,"O=C(NO)c1ccc2nc(-c3ccc(Br)cc3)[nH]c2c1 [Example 3, 2-(4-bromophenyl)-N-hydroxy-1H-benzimidazole-6-carboxamide]",45,–,–,–,–,–,–,–,–,–,6300,> 20000,6000,–
1200,"CC(C)(C)c1ccc(-c2nc3ccc(C(=O)NO)cc3[nH]2)cc1 [Example 159, 2-(4-tert-butylphenyl)-N-hydroxy-1H-benzimidazole-6-carboxamide]",19,–,–,–,–,–,–,–,–,–,6300,> 20000,2100,–
2100,"COc1ccc2cc(-c3nc4ccc(C(=O)NO)cc4[nH]3)ccc2c1 [Example 10, N-hydroxy-2-(6-methoxynaphthalen-2-yl)-1H-benzimidazole-6-carboxamide]",–,–,–,–,–,–,–,–,–,–,2200,> 20000,1200,–
